Read-outs that look alike come from different tables or passages of the source. Each block holds one molecule with its values, some of them ahead of it.
What was measured:
Format in all cases: cell-based
[1] = system: brain-tumor cells (glioblastoma cells); test: growth inhibition of brain-tumor cells; details: Tables 1 to 3
[2] = system: A-375 melanoma cells; test: 3H-thymidine assay; details: Homo sapiens
[3] = system: Z-R-75-1 breast cancer cells; test: 3H-thymidine assay; details: Homo sapiens
[4] = system: Tp 242 MG glioblastoma cells; test: 3H-thymidine assay; details: Homo sapiens; for activity at 1 µM / activity at 2 µM / activity at 4 µM / activity at 8 µM / activity at 16 µM / activity at 25 µM / activity at 50 µM / activity at 100 µM / activity at 250 µM / activity at 500 µM: read-out: 3H-thymidine insertion (%) of control; for IC50: read-out: active substance concentration at which 3H-thymidine insertion was 50% inhibited
[5] = system: Daudi leukemic cells; test: 3H-thymidine assay; details: Homo sapiens; for activity at 1 µM / activity at 2 µM / activity at 4 µM / activity at 8 µM / activity at 16 µM / activity at 25 µM / activity at 50 µM / activity at 100 µM / activity at 250 µM / activity at 500 µM: read-out: 3H-thymidine tracer (%) of control
[6] = system: G-361 melanoma cells; test: 3H-thymidine assay; details: Homo sapiens
[7] = A-375, 1 μM/ml, read-out: 3H-thymidine tracer (%) of control
[8] = A-375, 2 μM/ml, read-out: 3H-thymidine tracer (%) of control
[9] = A-375, 4 μM/ml, read-out: 3H-thymidine tracer (%) of control
[10] = A-375, 8 μM/ml, read-out: 3H-thymidine tracer (%) of control
[11] = A-375, 25 μM/ml, read-out: 3H-thymidine tracer (%) of control
[12] = A-375, 50 μM/ml, read-out: 3H-thymidine tracer (%) of control
[13] = A-375, 100 μM/ml, read-out: 3H-thymidine tracer (%) of control
[14] = A-375, 250 μM/ml, read-out: 3H-thymidine tracer (%) of control
[15] = A-375, 500 μM/ml, read-out: 3H-thymidine tracer (%) of control
[16] = A-375, Table 4, *: maximum usable dosage, no 50% inhibition, read-out: active substance concentration at which 3H-thymidine insertion was 50% inhibited
[17] = ZR-75-1, 1 μM/ml, read-out: 3H-thymidine tracer (%) of control
[18] = ZR-75-1, 2 μM/ml, read-out: 3H-thymidine tracer (%) of control
[19] = ZR-75-1, 4 μM/ml, read-out: 3H-thymidine tracer (%) of control
[20] = ZR-75-1, 8 μM/ml, read-out: 3H-thymidine tracer (%) of control
[21] = ZR-75-1, 16 μM/ml, read-out: 3H-thymidine tracer (%) of control
[22] = ZR-75-1, 25 μM/ml, read-out: 3H-thymidine tracer (%) of control
[23] = ZR-75-1, 50 μM/ml, read-out: 3H-thymidine tracer (%) of control
[24] = ZR-75-1, 100 μM/ml, read-out: 3H-thymidine tracer (%) of control
[25] = ZR-75-1, 250 μM/ml, read-out: 3H-thymidine tracer (%) of control
[26] = ZR-75-1, 500 μM/ml, read-out: 3H-thymidine tracer (%) of control
[27] = ZR-75-1, Table 4, *: maximum usable dosage, no 50% inhibition, read-out: active substance concentration at which 3H-thymidine insertion was 50% inhibited
[28] = Table 4, read-out: active substance concentration at which 3H-thymidine insertion was 50% inhibited
[29] = G-361, 1 μM/ml, read-out: 3H-thymidine tracer (%) of control
[30] = G-361, 2 μM/ml, read-out: 3H-thymidine tracer (%) of control
[31] = G-361, 4 μM/ml, read-out: 3H-thymidine tracer (%) of control
[32] = G-361, 8 μM/ml, read-out: 3H-thymidine tracer (%) of control
[33] = G-361, 25 μM/ml, read-out: 3H-thymidine tracer (%) of control
[34] = G-361, 50 μM/ml, read-out: 3H-thymidine tracer (%) of control
[35] = G-361, 100 μM/ml, read-out: 3H-thymidine tracer (%) of control
[36] = G-361, 250 μM/ml, read-out: 3H-thymidine tracer (%) of control
[37] = G-361, 500 μM/ml, read-out: 3H-thymidine tracer (%) of control
[38] = G-361, Table 4, *: maximum usable dosage, no 50% inhibition, read-out: active substance concentration at which 3H-thymidine insertion was 50% inhibited
[39] = A-375, read-out: 3H-thymidine tracer (%) of control
[40] = ZR-75-1, read-out: 3H-thymidine tracer (%) of control
[41] = G-361, read-out: 3H-thymidine tracer (%) of control

Compound: O=c1ccc2cc(O)c(O)cc2o1 [Esculetin, 6,7-hydroxy-1,2-benzopyrone]
- growth-inhibiting effect on brain-tumor cells [1]: strong growth-inhibiting effect on brain-tumor cells
- activity at 1 µM [2, 7]: 98%
- activity at 2 µM [2, 8]: 91%
- activity at 4 µM [2, 9]: 89%
- activity at 8 µM [2, 10]: 84%
- activity at 16 µM ([2]; A-375, 16 μM/ml, read-out: 3H-thymidine tracer (%) of control): 75%
- activity at 25 µM [2, 11]: 70%
- activity at 50 µM [2, 12]: 65%
- activity at 100 µM [2, 13]: 63%
- activity at 250 µM [2, 14]: 59%
- activity at 500 µM [2, 15]: 55%
- IC50 [2, 16]: > 500 µM
- activity at 1 µM [3, 17]: 98%
- activity at 2 µM [3, 18]: 96%
- activity at 4 µM [3, 19]: 89%
- activity at 8 µM [3, 20]: 84%
- activity at 16 µM [3, 21]: 77%
- activity at 25 µM [3, 22]: 70%
- activity at 50 µM [3, 23]: 61%
- activity at 100 µM [3, 24]: 53%
- activity at 250 µM [3, 25]: 46%
- activity at 500 µM [3, 26]: 39%
- IC50 [3, 27]: 175 µM
- activity at 1 µM ([4]; 1 μM/ml): 96%
- activity at 2 µM ([4]; 2 μM/ml): 96%
- activity at 4 µM ([4]; 4 μM/ml): 89%
- activity at 8 µM ([4]; 8 μM/ml): 87%
- activity at 16 µM ([4]; 16 μM/ml): 75%
- activity at 25 µM ([4]; 25 μM/ml): 72%
- activity at 50 µM ([4]; 50 μM/ml): 60%
- activity at 100 µM ([4]; 100 μM/ml): 44%
- activity at 250 µM ([4]; 250 μM/ml): 32%
- activity at 500 µM ([4]; 500 μM/ml): 21%
- IC50 ([4]; Table 4): 75 µM
- activity at 1 µM ([5]; 1 μM/ml): 94%
- activity at 2 µM ([5]; 2 μM/ml): 96%
- activity at 4 µM ([5]; 4 μM/ml): 83%
- activity at 8 µM ([5]; 8 μM/ml): 75%
- activity at 16 µM ([5]; 16 μM/ml): 69%
- activity at 25 µM ([5]; 25 μM/ml): 63%
- activity at 50 µM ([5]; 50 μM/ml): 61%
- activity at 100 µM ([5]; 100 μM/ml): 57%
- activity at 250 µM ([5]; 250 μM/ml): 54%
- activity at 500 µM ([5]; 500 μM/ml): 39%
- IC50 [5, 28]: 250 µM
- activity at 1 µM [6, 29]: 97%
- activity at 2 µM [6, 30]: 93%
- activity at 4 µM [6, 31]: 90%
- activity at 8 µM [6, 32]: 88%
- activity at 16 µM ([6]; G-361, 16 μM/ml, read-out: 3H-thymidine tracer (%) of control): 72%
- activity at 25 µM [6, 33]: 68%
- activity at 50 µM [6, 34]: 60%
- activity at 100 µM [6, 35]: 58%
- activity at 250 µM [6, 36]: 52%
- activity at 500 µM [6, 37]: 49%
- IC50 [6, 38]: 500 µM

Compound: O=c1ccc2cc(O[C@@H]3O[C@H](CO)[C@@H](O)[C@H](O)[C@H]3O)c(O)cc2o1 [Esculin, 6-beta-D-glucopyranosyloxy-7-hydroxy-1,2-benzopyrone]
- activity at 1 µM [2, 39]: 100%
- activity at 2 µM [2, 39]: 96%
- activity at 4 µM [2, 39]: 93%
- activity at 8 µM [2, 39]: 87%
- activity at 16 µM [2, 39]: 82%
- activity at 25 µM [2, 39]: 78%
- activity at 50 µM [2, 39]: 71%
- activity at 100 µM [2, 39]: 64%
- activity at 250 µM [2, 39]: 60%
- activity at 500 µM [2, 39]: 57%
- IC50 ([2]; A-375, read-out: active substance concentration at which 3H-thymidine insertion was 50% inhibited): > 500 µM
- activity at 1 µM [3, 40]: 100%
- activity at 2 µM [3, 40]: 97%
- activity at 4 µM [3, 40]: 89%
- activity at 8 µM [3, 40]: 85%
- activity at 16 µM [3, 40]: 75%
- activity at 25 µM [3, 40]: 72%
- activity at 50 µM [3, 40]: 64%
- activity at 100 µM [3, 40]: 56%
- activity at 250 µM [3, 40]: 51%
- activity at 500 µM [3, 40]: 47%
- IC50 ([3]; ZR-75-1, read-out: active substance concentration at which 3H-thymidine insertion was 50% inhibited): 250 µM
- activity at 1 µM [4]: 100%
- activity at 2 µM [4]: 98%
- activity at 4 µM [4]: 95%
- activity at 8 µM [4]: 81%
- activity at 16 µM [4]: 73%
- activity at 25 µM [4]: 68%
- activity at 50 µM [4]: 65%
- activity at 100 µM [4]: 61%
- activity at 250 µM [4]: 53%
- activity at 500 µM [4]: 49%
- IC50 [4]: 500 µM
- activity at 1 µM [5]: 100%
- activity at 2 µM [5]: 98%
- activity at 4 µM [5]: 93%
- activity at 8 µM [5]: 87%
- activity at 16 µM [5]: 80%
- activity at 25 µM [5]: 71%
- activity at 50 µM [5]: 69%
- activity at 100 µM [5]: 52%
- activity at 250 µM [5]: 48%
- activity at 500 µM [5]: 44%
- IC50 ([5]; read-out: active substance concentration at which 3H-thymidine insertion was 50% inhibited): 100 µM
- activity at 1 µM [6, 41]: 98%
- activity at 2 µM [6, 41]: 94%
- activity at 4 µM [6, 41]: 90%
- activity at 8 µM [6, 41]: 86%
- activity at 16 µM [6, 41]: 81%
- activity at 25 µM [6, 41]: 74%
- activity at 50 µM [6, 41]: 70%
- activity at 100 µM [6, 41]: 63%
- activity at 250 µM [6, 41]: 60%
- activity at 500 µM [6, 41]: 54%
- IC50 ([6]; G-361, read-out: active substance concentration at which 3H-thymidine insertion was 50% inhibited): > 500 µM

- IC50 [2, 16]: > 500 µM
- IC50 [3, 27]: > 500 µM
- IC50 ([4]; Table 4): 500 µM
- IC50 [5, 28]: 250 µM
- IC50 [6, 38]: > 500 µM
Compound: COc1cc2ccc(=O)oc2cc1O [Scopoletin, 6-methoxy-7-hydroxy-1,2-benzopyrone]
- activity at 1 µM [2, 7]: 99%
- activity at 2 µM [2, 8]: 96%
- activity at 4 µM [2, 9]: 90%
- activity at 8 µM [2, 10]: 89%
- activity at 25 µM [2, 11]: 87%
- activity at 50 µM [2, 12]: 78%
- activity at 100 µM [2, 13]: 75%
- activity at 250 µM [2, 14]: 75%
- activity at 500 µM [2, 15]: 70%
- activity at 1 µM [3, 17]: 98%
- activity at 2 µM [3, 18]: 96%
- activity at 4 µM [3, 19]: 91%
- activity at 8 µM [3, 20]: 83%
- activity at 16 µM [3, 21]: 79%
- activity at 25 µM [3, 22]: 72%
- activity at 50 µM [3, 23]: 64%
- activity at 100 µM [3, 24]: 57%
- activity at 250 µM [3, 25]: 55%
- activity at 500 µM [3, 26]: 50%
- activity at 1 µM ([4]; 1 μM/ml): 99%
- activity at 2 µM ([4]; 2 μM/ml): 93%
- activity at 4 µM ([4]; 4 μM/ml): 85%
- activity at 8 µM ([4]; 8 μM/ml): 87%
- activity at 16 µM ([4]; 16 μM/ml): 84%
- activity at 25 µM ([4]; 25 μM/ml): 79%
- activity at 50 µM ([4]; 50 μM/ml): 74%
- activity at 100 µM ([4]; 100 μM/ml): 61%
- activity at 250 µM ([4]; 250 μM/ml): 52%
- activity at 500 µM ([4]; 500 μM/ml): 48%
- activity at 1 µM ([5]; 1 μM/ml): 96%
- activity at 2 µM ([5]; 2 μM/ml): 94%
- activity at 4 µM ([5]; 4 μM/ml): 80%
- activity at 8 µM ([5]; 8 μM/ml): 79%
- activity at 16 µM ([5]; 16 μM/ml): 71%
- activity at 25 µM ([5]; 25 μM/ml): 64%
- activity at 50 µM ([5]; 50 μM/ml): 58%
- activity at 100 µM ([5]; 100 μM/ml): 53%
- activity at 250 µM ([5]; 250 μM/ml): 49%
- activity at 500 µM ([5]; 500 μM/ml): 41%
- activity at 1 µM [6, 29]: 100%
- activity at 2 µM [6, 30]: 98%
- activity at 4 µM [6, 31]: 96%
- activity at 8 µM [6, 32]: 88%
- activity at 25 µM [6, 33]: 85%
- activity at 50 µM [6, 34]: 85%
- activity at 100 µM [6, 35]: 76%
- activity at 250 µM [6, 36]: 71%
- activity at 500 µM [6, 37]: 67%

— patent US5525626A (priority 1989, dated 1996)
